Reference: US20030215462A1, “Use of UGT inhibitors to increase bioavailability” (priority 2001, published 2003)
Where “and” joins values, the source holds several entries; their conditions need not be identical. Identical values can stand only once.

How the values were obtained:
[1] = target: T1, UGT enzymes of human liver microsomes (Homo sapiens, UniProt P16662); experiment: Inhibition of zidovudine glucuronidation in human liver microsomes; format: biochemical; details: liver lot 062101
T1 construct: residual metabolism (percentage of control), zidovudine glucuronidation; other: liver lot 062101; residual metabolism (percentage of control), zidovudine glucuronidation; residual metabolism (percentage of control)
T1 sequence (P16662 1-529): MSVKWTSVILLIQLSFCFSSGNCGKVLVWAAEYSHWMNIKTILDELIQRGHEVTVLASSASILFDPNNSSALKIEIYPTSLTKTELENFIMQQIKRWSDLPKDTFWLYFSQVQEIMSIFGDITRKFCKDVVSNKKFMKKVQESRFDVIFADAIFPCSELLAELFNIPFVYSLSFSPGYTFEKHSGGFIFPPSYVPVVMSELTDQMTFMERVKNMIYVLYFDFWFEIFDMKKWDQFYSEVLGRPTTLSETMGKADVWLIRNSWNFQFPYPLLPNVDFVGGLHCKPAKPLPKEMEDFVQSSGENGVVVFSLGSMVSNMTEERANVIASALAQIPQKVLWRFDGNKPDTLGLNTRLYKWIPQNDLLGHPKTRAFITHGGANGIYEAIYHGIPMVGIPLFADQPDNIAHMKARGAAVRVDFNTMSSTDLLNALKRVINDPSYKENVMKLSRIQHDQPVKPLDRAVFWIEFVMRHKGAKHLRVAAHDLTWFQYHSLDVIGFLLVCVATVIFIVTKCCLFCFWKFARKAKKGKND
Description: Compounds were eluted using a binary solvent gradient system where solvent A was dilute phosphoric acid (pH 3) and solvent B was acetonitrile.
Standardized incubations utilized 500 μM zidovudine substrate, 1 mg/ml microsomal protein, 5 mM UDPGA and a 30 min incubation time. […] Int.

[2] = system: UGT enzymes of pooled human jejunum microsomes; experiment: Inhibition of 2ME2 glucuronidation (MG1) in pooled human jejunum microsomes; format: biochemical; details: jejunum HJ61, 2ME2 50 μM
Excerpt: Compounds were eluted using a binary solvent gradient system where solvent A was dilute phosphoric acid (pH 3) and solvent B was 80:20 acetonitrile-methanol. […] Detection was at 280 nm.

[3] = system: T2, UGT enzymes of human liver microsomes; experiment: Inhibition of labetalol glucuronidation (LG1, LG2) in human liver microsomes; format: biochemical; details: labetalol 50 μM; inhibitor 100 μM
T2 construct: residual metabolism (percentage of control), labetalol LG1; other: labetalol 50 μM; residual metabolism (percentage of control), labetalol LG1; residual metabolism (percentage of control), labetalol LG2; inhi
Description: Supernatants were analyzed by HPLC with fluorescence detection.
Compounds were eluted using a binary solvent gradient system where solvent A was 5:5:90 tetrahydrofuran-acetonitrile-(NH4)2HPO4 50 mM, while solvent B was 25:25:50 tetrahydrofuran-acetonitrile-(NH4)2HPO4 50 mM. Solvent flow rate was 0.75 ml/min and the column temperature was ambient. […] Labetalol and metabolites were measured by fluorescence detection using a Jasco model FP920 detector. Excitation and emission wavelengths were 370 nm 418 nm respectively. Retention times for salicylamide internal standard and labetalol were 6.6 min and 15.0 min respectively.

[4] = target: T3, UGT1A9 (Homo sapiens, UniProt O60656); experiment: Inhibition of raloxifene glucuronidation by recombinant UGT1A9 Supersomes; details: UGT1A9
T3 sequence (O60656 26-530): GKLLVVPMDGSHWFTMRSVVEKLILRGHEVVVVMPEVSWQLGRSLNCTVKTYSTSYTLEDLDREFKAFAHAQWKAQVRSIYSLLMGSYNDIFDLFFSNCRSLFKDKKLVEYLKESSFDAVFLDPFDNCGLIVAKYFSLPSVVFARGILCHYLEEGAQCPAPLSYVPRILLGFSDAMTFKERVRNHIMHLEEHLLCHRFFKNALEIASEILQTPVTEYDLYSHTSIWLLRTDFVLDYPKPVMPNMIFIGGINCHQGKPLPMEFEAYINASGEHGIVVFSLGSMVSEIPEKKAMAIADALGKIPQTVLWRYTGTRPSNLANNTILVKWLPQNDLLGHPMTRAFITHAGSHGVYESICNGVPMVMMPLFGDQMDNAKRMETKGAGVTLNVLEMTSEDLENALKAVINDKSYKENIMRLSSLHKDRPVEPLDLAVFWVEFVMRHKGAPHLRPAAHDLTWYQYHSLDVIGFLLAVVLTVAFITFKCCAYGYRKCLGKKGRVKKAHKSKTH
Description: Compounds were eluted using a binary solvent gradient system. Solvent A was water brought to pH 8 with NH4OH. Solvent B was methanol. Solvent flow rate was 1 ml/min and the column temperature was maintained at 50° C. Detection was at 280 nm. […] The system was then returned to the initial conditions and equilibrated for 3 min.

[5] = system: UGT enzymes of human liver microsomes; experiment: Inhibition of raloxifene glucuronidation (G1, G2) in human liver microsomes; format: biochemical; details: for % of control metabolism (SD, n = 3), raloxifene glucuronide G1 / % of control metabolism (SD, n = 3), raloxifene glucuronide G2: human liver microsomes 250 μg/ml, 15 min
Excerpt: Compounds were eluted using a binary solvent gradient system. […] Solvent B was methanol. […] Detection was at 280 nm.

[6] = inhibitor 25 μM, raloxifene 50 μM
[7] = inhibitor 50 μM, raloxifene 50 μM
[8] = inhibitor 100 μM, raloxifene 50 μM
[9] = inhibitor 500 μM, raloxifene 50 μM
[10] = raloxifene 50 μM, inhibitor 25 μM
[11] = raloxifene 50 μM, inhibitor 50 μM
[12] = raloxifene 50 μM, inhibitor 100 μM
[13] = inhibitor 10 μM, raloxifene 50 μM
[14] = liver lot 032101, inhibitor 50 μM
[15] = liver lot 062101, inhibitor 50 μM
[16] = liver lot 083000, inhibitor 50 μM
[17] = raloxifene 50 μM, inhibitor 10 μM

For `C=CCc1ccc(O)c(OC)c1` [Eugenol], which “residual metabolism (percentage of control), zidovudine glucuronidation” value ([1]; inhibitor 500 μM) is on record?
The value was 84 (2) %.

And the “residual metabolism (percentage of control), zidovudine glucuronidation” value ([1]; inhibitor 1000 μM)?
The value was 48 (4) %.

What about the “residual metabolism (% of control), 2ME2 MG1” value ([2]; inhibitor 100 μM) of the same molecule?
The value was 104 (4) %.

And the “residual metabolism (percentage of control), labetalol LG1” value [3]?
The value was 82 (2) %.

And the “residual metabolism (percentage of control), labetalol LG2” value [3]?
The value was 75 (4) %.

And the “inhibition of raloxifene glucuronidation, in words” value [4]?
The value was “amongst the best inhibitors”.

And the “% of control metabolism, raloxifene G1” value ([5]; 50 µM)?
The value was 39 (0), 41 (3) % and 65 (1), 63 (3) % and 69 (4), 53 (2) %.

What about the “% of control metabolism, raloxifene G2” value ([5]; 50 µM) of the same molecule?
The value was 39 (0), 41 (3) % and 65 (1), 63 (3) % and 69 (4), 53 (2) %.

`CCCOC(=O)c1cc(O)c(O)c(O)c1` [Propyl gallate] was tested. Which “residual metabolism (percentage of control), zidovudine glucuronidation” value ([1]; inhibitor 500 μM) did it give?
The value was 77 (2) %.

What about the “% of control metabolism (SD, n = 3), raloxifene glucuronide G1” value [5, 6] of the same molecule?
Its value is 58 (4) %.

And the “% of control metabolism (SD, n = 3), raloxifene glucuronide G1” value [5, 7]?
The value was 45 (6) %.

And the “% of control metabolism (SD, n = 3), raloxifene glucuronide G1” value [5, 8]?
Its value is 48 (2) %.

And the “% of control metabolism (SD, n = 3), raloxifene glucuronide G1” value [5, 9]?
The value was 21 (1) %.

What about the “% of control metabolism (SD, n = 3), raloxifene glucuronide G2” value [5, 6] of the same molecule?
Its value is 60 (4) %.

What about the “% of control metabolism (SD, n = 3), raloxifene glucuronide G2” value [5, 7] of the same molecule?
The value was 48 (6) %.

What about the “% of control metabolism (SD, n = 3), raloxifene glucuronide G2” value [5, 8] of the same molecule?
The value was 52 (3) %.

What about the “% of control metabolism (SD, n = 3), raloxifene glucuronide G2” value [5, 9] of the same molecule?
The value was 33 (2) %.

And the “% of control metabolism, raloxifene G1” value [5, 10]?
The value was 58 (4) %.

What about the “% of control metabolism, raloxifene G2” value [5, 10] of the same molecule?
Its value is 60 (4) %.

And the “% of control metabolism, raloxifene G1” value [5, 11]?
Its value is 45 (6) %.

And the “% of control metabolism, raloxifene G2” value [5, 11]?
The value was 48 (6) %.

And the “% of control metabolism, raloxifene G1” value [5, 12]?
The value was 48 (2) %.

What about the “% of control metabolism, raloxifene G2” value [5, 12] of the same molecule?
The value was 52 (3) %.

`CC(CCc1ccccc1)NCC(O)c1ccc(O)c(C(N)=O)c1` (stereo not shown) [Labetalol, labetalol] was tested. Which “% of control metabolism (SD, n = 3), raloxifene glucuronide G1” value [5, 9] did it give?
Its value is 104 (11) %.

And the “% of control metabolism (SD, n = 3), raloxifene glucuronide G2” value [5, 9]?
The value was 102 (4) %.

How did the “residual metabolism (percentage of control), zidovudine glucuronidation” value ([1]; inhibitor 50 μM) turn out when `O=C(O[C@@H]1Cc2c(O)cc(O)cc2O[C@@H]1c1ccc(O)c(O)c1)c1cc(O)c(O)c(O)c1` [Epicatechin gallate] was run?
The value was 80 (1) %.

What about the “residual metabolism (percentage of control), zidovudine glucuronidation” value ([1]; inhibitor 100 μM) of the same molecule?
Its value is 67 (1) %.

And the “residual metabolism (percentage of control), zidovudine glucuronidation” value ([1]; inhibitor 200 μM)?
The value was 60 (2) %.

And the “residual metabolism (percentage of control), zidovudine glucuronidation” value ([1]; inhibitor 500 μM)?
The value was 28 (1) %.

And the “residual metabolism (% of control), 2ME2 MG1” value ([2]; inhibitor 25 μM)?
Its value is 76 (4) %.

What about the “residual metabolism (% of control), 2ME2 MG1” value ([2]; inhibitor 50 μM) of the same molecule?
Its value is 63 (1) %.

And the “residual metabolism (% of control), 2ME2 MG1” value ([2]; inhibitor 100 μM)?
The value was 47 (2) %.

What about the “residual metabolism (percentage of control), labetalol LG1” value [3] of the same molecule?
Its value is 74 (1) %.

What about the “residual metabolism (percentage of control), labetalol LG2” value [3] of the same molecule?
Its value is 86 (2) %.

What about the “% of control metabolism (SD, n = 3), raloxifene glucuronide G1” value [5, 13] of the same molecule?
The value was 77 (4) %.

What about the “% of control metabolism (SD, n = 3), raloxifene glucuronide G1” value [5, 6] of the same molecule?
The value was 48 (4) %.

What about the “% of control metabolism (SD, n = 3), raloxifene glucuronide G1” value [5, 7] of the same molecule?
The value was 37 (3) %.

What about the “% of control metabolism (SD, n = 3), raloxifene glucuronide G1” value [5, 8] of the same molecule?
The value was 20 (0) %.

What about the “% of control metabolism (SD, n = 3), raloxifene glucuronide G1” value [5, 9] of the same molecule?
Its value is 0 (0) %.

And the “% of control metabolism (SD, n = 3), raloxifene glucuronide G2” value [5, 13]?
Its value is 73 (4) %.

And the “% of control metabolism (SD, n = 3), raloxifene glucuronide G2” value [5, 6]?
Its value is 55 (5) %.

What about the “% of control metabolism (SD, n = 3), raloxifene glucuronide G2” value [5, 7] of the same molecule?
Its value is 43 (4) %.

What about the “% of control metabolism (SD, n = 3), raloxifene glucuronide G2” value [5, 8] of the same molecule?
The value was 24 (2) %.

What about the “% of control metabolism (SD, n = 3), raloxifene glucuronide G2” value [5, 9] of the same molecule?
Its value is 0 (0) %.

What about the “% of control metabolism, raloxifene G1” value [5, 14] of the same molecule?
The value was 47 (4) %.

And the “% of control metabolism, raloxifene G2” value [5, 14]?
The value was 45 (2) %.

What about the “% of control metabolism, raloxifene G1” value [5, 15] of the same molecule?
The value was 63 (4) %.

What about the “% of control metabolism, raloxifene G2” value [5, 15] of the same molecule?
The value was 37 (2) %.

What about the “% of control metabolism, raloxifene G1” value [5, 16] of the same molecule?
Its value is 37 (3) %.

What about the “% of control metabolism, raloxifene G2” value [5, 16] of the same molecule?
Its value is 43 (4) %.

What about the “% of control metabolism, raloxifene G1” value [5, 17] of the same molecule?
The value was 77 (4) %.

What about the “% of control metabolism, raloxifene G2” value [5, 17] of the same molecule?
Its value is 73 (4) %.

What about the “% of control metabolism, raloxifene G1” value [5, 10] of the same molecule?
Its value is 48 (4) %.

And the “% of control metabolism, raloxifene G2” value [5, 10]?
Its value is 55 (5) %.

And the “% of control metabolism, raloxifene G1” value [5, 11]?
The value was 37 (3) %.

And the “% of control metabolism, raloxifene G2” value [5, 11]?
Its value is 43 (4) %.

What about the “% of control metabolism, raloxifene G1” value [5, 12] of the same molecule?
Its value is 20 (0) %.

What about the “% of control metabolism, raloxifene G2” value [5, 12] of the same molecule?
Its value is 24 (2) %.
